According to PubChem BioAssay AID588780 (Sanford-Burnham Center for Chemical Genomics, 2011):
Calls of active or inactive are those of the source.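 How the source made its calls: active means compounds whose fitted half-maximal concentration in the cell-protection dose series is at or below a set limit; inactive means the rest.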

Tested on: H9c2 cardiomyocytes, 2-deoxyglucose stress, ATP luminescence, 2 h
Experiment: protection of cardiomyocytes from 2-deoxyglucose injury, dose response, cell-based, 2-deoxyglucose stress, uHTS hits (AID 588780)

| SMILES | IC50 |
| --- | --- |
| COc1cc(NC(=O)c2csc(-c3ccncc3)n2)cc(C(=O)Nc2cccc(C(F)(F)F)c2)c1 | 8.47 µM |
| Oc1c(Br)cc(Br)cc1C=NCc1ccc(F)cc1 | > 79 µM (inactive) |
| O=C(CCc1nc2ccccc2c(=O)[nH]1)N1CCN(S(=O)(=O)c2ccccc2Br)CC1 | > 79 µM (inactive) |
| CC1CCCC(C)N1C(=O)CSc1nc2ccccc2c(=O)[nH]1 (configuration not stated) | > 79 µM (inactive) |
| COc1ccc(NC(=O)N(C)C[C@H]2Oc3c(NC(=O)Nc4ccc(C(F)(F)F)cc4)cccc3C(=O)N([C@H](C)CO)C[C@@H]2C)cc1 | > 79 µM (inactive) |
| CCOC(=O)C1CCN(C(c2cc3c(C)ccc(C)c3[nH]c2=O)c2nnnn2C2CCCCC2)CC1 (configuration not stated) | > 79 µM (inactive) |
| O=C(NCc1ccco1)c1cnn2c(C(F)(F)F)cc(-c3cccs3)nc12 | > 79 µM (inactive) |
| CCOC(=O)c1cc2c(=O)n3cccc(C)c3nc2n(CCCOC)c1=NC(=O)c1cccnc1 | > 79 µM (inactive) |
| CCN1C(=O)[C@H]2[C@@H](c3ccc(-c4ccc(C(C)=O)cc4)cc3)N[C@@](C)(C(=O)OC)[C@H]2C1=O | > 79 µM (inactive) |
| O=C(CSc1nc2ccccc2c(=O)[nH]1)c1ccccc1 | > 79 µM (inactive) |
| COc1cc(-c2cc(C(=O)Nc3ccccc3N3CCOCC3)c3ccccc3n2)cc(OC)c1OC | > 79 µM (inactive) |
| COc1ccc(-c2ccc(Nc3ccc(S(=O)(=O)N4CCCC4)cc3)nn2)cc1OC | 25 µM |
| C/C(=N/NC(=O)c1cccs1)c1cccc(NC(=O)C2CC2)c1 | > 79 µM (inactive) |
| COc1cc(C(=O)N/N=C/c2ccc(OC(=O)c3cccc(C)c3)c(OC)c2)ccc1O | > 79 µM (inactive) |
| Cc1[nH]c2ccccc2c1/C=N/NC(=O)c1cc(-c2cccs2)[nH]n1 | > 79 µM (inactive) |
| Cn1c(C(=O)NCCc2ccsc2)cc2c(=O)n(C)c3ccccc3c21 | > 79 µM (inactive) |
| CC(=O)c1ccc(N2CCN(C(=O)c3cc(-c4cccnc4)nc4ccc(Br)cc34)CC2)cc1 | 11 µM |
| O=C(COC(=O)CCc1nc2ccccc2c(=O)[nH]1)Nc1ccc2c(c1)OCO2 | > 79 µM (inactive) |
| O=C(CCn1c(=O)oc2ccccc21)N(Cc1ccccc1)c1ccccc1 | > 79 µM (inactive) |
| CCOC(=O)C(Cc1ccc(NC(=O)/C(=C/c2ccc(OC(C)=O)cc2)NC(C)=O)cc1)N1C(=O)c2ccccc2C1=O (configuration not stated) | > 79 µM (inactive) |
| CSc1nc2ccc(S(=O)(=O)Nc3c(C)n(C)n(-c4ccccc4)c3=O)cc2s1 | > 79 µM (inactive) |
| O=C(COc1ccccc1Cl)NNC(=O)Cn1[nH]c(=O)c2ccccc2c1=O | > 79 µM (inactive) |
| CC(=O)c1ccc(-c2cnc3c(NC=O)cc(-c4cccc(C(=O)N(C)C)c4)cn23)cc1 | 14 µM |

| SMILES | IC50 |
| --- | --- |
| CCOc1ccc2[nH]c(=O)c(CN(Cc3ccco3)C(CC)c3nnnn3Cc3ccccc3)cc2c1 (configuration not stated) | > 79 µM (inactive) |
| O=c1[nH]c(CSc2nnc(-c3cccnc3)n2C2CCCCC2)nc2ccccc12 | > 79 µM (inactive) |
| COc1cc2[nH]c(=O)n3nc(-c4ccccc4)nc3c2cc1OC | > 79 µM (inactive) |
| O=c1[nH]c2ccccc2n1CCCN1CCC(n2c(=O)[nH]c3cc(Cl)ccc32)CC1 | > 79 µM (inactive) |
| CC1CCN(C(=O)COC(=O)c2n[nH]c(=O)c3ccccc23)CC1 | 47.8 µM (inactive) |
| Fc1ccc(-c2ccc(-c3nn4c(-c5ccco5)nnc4s3)o2)cc1 | > 79 µM (inactive) |
| O=C1OCCN1C(=O)[C@H]1[C@H](c2ccc([N+](=O)[O-])cc2)C(c2ccc(F)cc2)=NN1c1ccc(Br)cc1 | 6.03 µM |
| COc1ccc(S(=O)(=O)N2CC(O)CC2C(=O)OCc2nc3sc(C)c(C)c3c(=O)[nH]2)cc1 (configuration not stated) | > 79 µM (inactive) |
| CCCN(CC(=O)Nc1ccc(F)c(F)c1F)C(=O)CCc1nc2ccccc2c(=O)[nH]1 | > 79 µM (inactive) |
| CCN1CCN(c2nc3c(c(=O)[nH]2)CCC3)CC1 | > 79 µM (inactive) |
| CN(C(=O)c1sc2nc(N3CCOCC3)c3c(c2c1N)CCCC3)c1ccccc1 | 5.73 µM |
| COc1ccc(/C=N/NC(=O)c2cccnc2)cc1CSc1nc2ccccc2s1 | 12.2 µM |
| CCC(C)N(C(=O)COC(=O)Cc1n[nH]c(=O)c2ccccc12)C1CCS(=O)(=O)C1 (configuration not stated) | > 79 µM (inactive) |
| Cc1cc(NC(=O)C2CCCCC2)nc2c1c(=O)oc1ccccc12 | 15.3 µM |
| COc1cc(/C=C(\C#N)C(=O)Nc2ccccc2)ccc1OCCN1CCOCC1 | 28.4 µM |
| COc1ccc(C(=O)Nc2cccc(NC(=O)c3ccc(OC)c(OC)c3)n2)cc1OC | > 79 µM (inactive) |
| CC(=O)Nc1ccc(NS(=O)(=O)c2cc(-c3n[nH]c(=O)c4ccccc34)ccc2C)cc1 | > 79 µM (inactive) |
| COc1cccc(-c2nn3c(-c4ccccn4)nnc3s2)c1 | 13.6 µM |
| COc1ccc(Nc2nc(Nc3ccc(OC)cc3OC)nc(N3CCN(C)CC3)n2)c(OC)c1 | 43.4 µM (inactive) |
| CCCn1c(NC(=O)c2ccccc2)nc2ccccc21 | > 79 µM (inactive) |
| O=C(c1cc(-c2cccnc2)nc2ccc(Br)cc12)N1CCN(c2ncccn2)CC1 | 9.44 µM |
| C[C@@H]1CN([C@@H](C)CO)C(=O)c2cc(NC(=O)Nc3ccccc3)ccc2O[C@H]1CN(C)C(=O)Nc1cccc2ccccc12 | 15.8 µM |
| Cc1ccc(C(=O)Oc2ccc(Cl)c3cccnc23)cc1[N+](=O)[O-] | > 79 µM (inactive) |

| SMILES | IC50 |
| --- | --- |
| COc1cc(/C=N\NC(=O)c2cccnc2)ccc1OC(=O)c1ccccc1Cl | > 79 µM (inactive) |
| Cc1[nH]c2ccccc2c1C(=O)CSc1nc2ccccc2[nH]1 | > 79 µM (inactive) |
| COc1ccc(NC(=O)c2cc(-c3ccc(OC)c(OC)c3)nc3ccccc23)c(OC)c1 | > 79 µM (inactive) |
| COc1ccc(-c2oc(=O)c3cc(OC)c(OC)cc3c2C#CCCO)cc1 | > 79 µM (inactive) |
| COC(=O)c1ccc(Cn2c(C)c(C(=O)NCc3cccs3)sc2=O)o1 | > 79 µM (inactive) |
| NC(=O)c1cccc(Nc2nc(C(N)COCc3ccccc3)cs2)n1 (configuration not stated) | > 79 µM (inactive) |
| CCCCc1nc2sc3c(c2c(=O)[nH]1)CCC3 | > 79 µM (inactive) |
| Cc1cc(Br)cc(C=Nc2ccc(N3CCOCC3)cc2)c1O | 58.4 µM (inactive) |
| COc1cccc(NC(=O)CN(C)C(=O)Cc2n[nH]c(=O)c3ccccc23)c1 | > 79 µM (inactive) |
| COc1cccc(NC(=O)NC2(C(F)(F)F)Oc3ccccc3O2)c1 | 16.9 µM |
| O=C1c2ccccc2NC(c2ccc(-c3cccc([N+](=O)[O-])c3)o2)N1O (configuration not stated) | 28.4 µM |
| Cc1ccccc1NC(=O)COc1cccc2c1CCNC2=O | > 79 µM (inactive) |
| Cc1cc(C)cc(OCC(=O)Nc2cccc(-c3nnc(-c4ccco4)o3)c2)c1 | > 79 µM (inactive) |
| CC(=O)Nc1cccc(NC(=O)CSc2ccc(-c3ccccn3)nn2)c1 | > 79 µM (inactive) |
| Oc1ccc(Br)cc1C=Nc1ccc2c3c(cccc13)CC2 | 59.1 µM (inactive) |
| CCCC(=O)Nc1nc2ccc(NC(=O)c3ccc(Br)o3)cc2s1 | > 79 µM (inactive) |
| CCOc1ccc2[nH]c(=O)c(CN(CCO)C3(c4nnnn4C4CCCCC4)CCCCC3)cc2c1 | 35.1 µM (inactive) |
| COc1ccccc1C(=O)NC(=O)COC(=O)Cn1[nH]c(=O)c2ccccc2c1=O | > 79 µM (inactive) |
| COc1cccc(Cn2nc(C(=O)O)c3ccccc3c2=O)c1 | 32.3 µM (inactive) |
| CCN(CC(=O)Nc1c(F)cccc1F)C(=O)Cc1n[nH]c(=O)c2ccccc12 | > 79 µM (inactive) |
| COc1cccc(NC(=O)c2oc3ccc(S(=O)(=O)N4CCOCC4)cc3c2C)c1 | > 79 µM (inactive) |
| COc1cccc(-c2nnc(NC(=O)c3ccc(Cl)s3)o2)c1 | > 79 µM (inactive) |
| O=C(CNC(=O)c1ccccc1F)N/N=C/c1cc(Br)ccc1OC(=O)/C=C/c1ccco1 | > 79 µM (inactive) |

| SMILES | IC50 |
| --- | --- |
| COc1ccc2[nH]c(=O)c(CN(c3ccccc3OC)S(=O)(=O)c3ccccc3)cc2c1 | 15.1 µM |
| O=C(COc1ccc(F)cc1)N/N=C/c1cccc2cccnc12 | > 79 µM (inactive) |
| O=C(CN1CCN(c2ccccn2)CC1)Nc1ccc([N+](=O)[O-])cc1C(=O)Nc1ccccc1F | 11.3 µM |
| CCOc1ccc(C(=O)COC(=O)Cn2[nH]c(=O)c3ccccc3c2=O)cc1 | > 79 µM (inactive) |
| CCc1ccc(NC(=O)CSc2ccc(-c3ccccn3)nn2)cc1 | > 79 µM (inactive) |
| O=C1N[C@H](Cc2c[nH]c3ccccc23)COC(=O)[C@H](Cc2ccc(F)cc2)C/C=C\C[C@H]1CC(=O)N(CCO)Cc1ccccc1 | 17.6 µM |
| O=C(NCc1ccc2c(c1)OCO2)c1n[nH]c(=O)c2ccccc12 | > 79 µM (inactive) |
| COc1cccc(CN(C)C(=O)C(Cc2ccccc2)NC(=O)c2ccccc2)c1OC (configuration not stated) | 20.8 µM |
| CCN(C[C@H]1N[C@@](CC)(C(=O)OC)[C@H]2C(=O)N(Cc3ccccc3)C(=O)[C@@H]12)S(=O)(=O)c1ccc(F)cc1 | > 79 µM (inactive) |
| O=c1cc(CN2CCN(S(=O)(=O)c3cccc(Cl)c3)CC2)c2ccc(O)cc2o1 | > 79 µM (inactive) |
| COc1ccc(-c2cc(C(=O)NNC(=O)c3csc(N4CCOCC4)n3)c3ccccc3n2)cc1 | > 79 µM (inactive) |
| O=C(Cn1[nH]c(=O)c2ccccc2c1=O)NNC(=O)c1ccccc1 | 9.4 µM |
| COc1cccc(C(=O)Nc2nnc(-c3ccc(Cl)cc3)o2)c1 | 14.9 µM |
| COc1ccc(Cl)cc1NC(=O)CN(C)C(=O)CCc1nc2ccccc2c(=O)[nH]1 | > 79 µM (inactive) |
| O=C(CCc1nc2ccccc2c(=O)[nH]1)NCCN1C(=O)S/C(=C\c2ccc(OC(F)F)cc2)C1=O | > 79 µM (inactive) |
| Cc1ccc(NS(=O)(=O)c2cc(-c3n[nH]c(=O)c4ccccc34)ccc2C)cc1 | > 79 µM (inactive) |
| Cc1ccc(CN(C(=O)CNC(=O)c2cccs2)C(C(=O)NCC2CCCO2)c2ccccc2)cc1 (configuration not stated) | 14.1 µM |
| COc1ccc(-c2cc(-c3ccc(O)cc3)nc(N)c2C#N)cc1OC | > 79 µM (inactive) |
| CCCCOc1ccc(C(=O)N/C(=C\c2ccc(OC)cc2)C(=O)OCc2ccco2)cc1 | > 79 µM (inactive) |
| O=c1[nH]cnc2sc3c(c12)CCC3 | > 79 µM (inactive) |
| S=c1[nH]c2ccccc2c2ccccc12 | > 79 µM (inactive) |
| COc1cc(OC)c(-c2nn3c(-c4ccco4)nnc3s2)cc1OC | 6.54 µM |
| CCOc1ccc(C(=O)Nc2cccc(-c3nc4cccnc4o3)c2)cc1Cl | 32.2 µM (inactive) |
